From patent publication US20250328351A1, “CARBONIC ANHYDRASE INHIBITORS AND ANTIBIOTICS AGAINST MULTIDRUG RESISTANT BACTERIA” (Purdue Research Foundation, priority 2018, published 2025)
Converted amounts (≈) assume the structure as drawn. Like-named read-outs stand apart in the source and are kept apart here.

Key:
Caco-2 cells = assay: In vitro cytotoxicity, MTS assay; details: concentration up to 128 μg/mL; two hours incubation
Description: Method: Compounds AS005H, AS005J, AS004B, AS005K, AS005A and 005D were assayed (at concentrations of 64 and 128 μg/mL) against a human colorectal adenocarcinoma (Caco-2) cell to determine the potential toxic effect to mammalian cells in vitro. Briefly, cells were cultured in Dulbecco's Modified Eagle Medium (DMEM) supplemented with 20% fetal bovine serum (FBS), non-essential amino acids (1×), penicillin-streptomycin at 37° C. with CO2 (5%). Control cells received DMSO alone at a concentration equal to that in drug-treated cell samples. The cells were incubated with the compounds (in triplicate) in a 96-well plate at 37° C. with CO2 (5%) for two hours. The assay reagent MTS 3-(4,5-dimethylthiazol-2-yl)-5-(3-carboxymethoxyphenyl)-2-(4-sulfophenyl)-2H-tetrazolium) (Promega, Madison, WI, USA) was subsequently added and the plate was incubated for four hours. Absorbance readings (at OD490) were taken using a kinetic microplate reader (Molecular Devices, Sunnyvale, CA, USA). The quantity of viable cells after treatment with each compound was expressed as a percentage of the viability of DMSO-treated control cells (average of triplicate wells±standard deviation). The toxicity data was analyzed via a two-way ANOVA, with post hoc Dunnet's multiple comparisons test (P<0.05), utilizing GraphPad Prism 6.0 (GraphPad Software, La Jolla, CA).
Percent viable mammalian cells (measured as average absorbance ratio (test agent relative to DMSO) for cytotoxicity analysis of AS005H, AS005J, AS004B, AS005K, AS005A and 005D compounds (tested in triplicate) at 64 and 128 μg/mL against Caco-2 cells using the MTS 3-(4,5-dimethylthiazol-2-yl)-5-(3-carboxymethoxyphenyl)-2-(4-sulfophenyl)-2H-tetrazolium) assay. Dimethyl sulfoxide (DMSO) was used as a negative control to determine a baseline measurement for the cytotoxic impact of each compound. The absorbance values represent an average of a minimum of three samples analyzed for each compound. Error bars represent standard deviation values for the absorbance values. A two-way ANOVA, with post hoc Dunnet's multiple comparisons test, determined statistical difference (denoted by the asterisk) (P<0.05) between the values obtained for each compound and DMSO (negative control, used as solvent for the compounds).

[1] = test system: Enterococcus faecalis S613 HM-334; assay: MIC, broth microdilution (CLSI); assay type: cell-based; details: Enterococcus faecalis, read-out: MIC
Description: (§1) The minimum inhibitory concentrations (MICs) of the compounds and control drugs were determined using the broth microdilution method, according to guidelines outlined by the Clinical and Laboratory Standards Institute (CLSI). Enterococci strains were grown aerobically overnight on tryptone soya agar plates at 37° C., afterwards a bacterial solution equivalent to 0.5 McFarland standard was prepared and diluted in tryptone soy broth (TSB) to achieve a bacterial concentration of about 5×10^5 CFU/mL and seeded in 96-well well plates. Compounds and control drugs were added in the first row of the 96-well plates and serially diluted along the plates. Plates were then incubated aerobically at 37° C. for 18-20 hours. MICs reported in Table 1 are the minimum concentration of the compounds/control drugs that could inhibit completely the visual growth of the bacteria.
(§2) The minimum inhibitory concentrations (MICs) of CAIs were tested against clinical isolates of vancomycin sensitive and vancomycin resistant Enterococci strains as per the guidelines provided by the Clinical and Laboratory Standards Institute (CLSI). The selected strains of Enterococci were streaked on Tryptic Soy Agar (TSA) plates and let grow for 24 hours at 37° C. Afterwards, a bacterial solution equivalent to 0.5 McFarland standard was prepared and diluted in tryptone soy broth (TSB) or brain heart infusion broth (BHIB) to achieve a bacterial concentration of about 5×10^5 CFU/mL and seeded in 96-well well plates. Compounds and control drugs were added in the first row of the 96-well plates and serially diluted along the plates. Plates were then incubated aerobically at 37° C. for 18-20 hours. MICs reported in Table 5 are the minimum concentration of the compounds/control drugs that could inhibit completely the visual growth of the bacteria.
The minimum inhibitory concentrations (MICs) of CAIs were tested against vancomycin resistant Enterococcus faecalis—S613 HM 334 strain as per the guidelines provided by the Clinical and Laboratory Standards Institute (CLSI). The selected strain was streaked on Tryptic Soy Agar (TSA) plate and let grow for 24 hours at 37° C. […] Compounds and control drugs were added in the first row of the 96-well plates and serially diluted along the plates. Plates were then incubated aerobically at 37° C. for 18-20 hours. MICs reported in table (6) are the minimum concentration of the compounds/control drugs that could inhibit completely the visual growth of the bacteria.

[2] = test system: Bacteroides fragilis CL07T00C01 HM-709; assay: MIC against human normal gut microbiota; assay type: cell-based; details: Table 3, BHIS broth, anaerobic, 48 hours, read-out: MIC
Description: (§3) Three different bacterial strains were used in this experiment; Bifidobacterium (anaerobic Gram positive bacteria), Bacteroides (anaerobic Gram negative bacteria) and Lactobacillus (microaerophilic Gram positive bacteria). Bifidobacterium and Bacteroides were first grown for 48 hours at 37° C., anaerobically using brain heart infusion supplemented (BHIS) agar (Brain heart infusion agar supplemented with hemin, vitamin K and L-cysteine). Lactobacillus was cultivated on MRS agar and incubated in presence of 5% CO2 for 48 hours at 37° C. Each bacterium was suspended in phosphate buffered saline (PBS) to produce a suspension with optical density that matches 0.5 McFarland standard and diluted in brain heart infusion supplemented broth (for Bifidobacterium and Bacteroides) or in MRS broth (for Lactobacillus) to achieve bacterial concentration of approximately 5×10^5 CFU/ml. Bacteria were then seeded in 96-well plates containing serial dilutions of the compounds and incubated as mentioned previously for 48 hours.

[3] = test system: Bacteroides dorei CL02T12C06 HM-719; assay: MIC against human normal gut microbiota; assay type: cell-based; details: Phocaeicola dorei; Table 3; BHIS broth, anaerobic, 48 hours; read-out: MIC
Description: as §3

[4] = test system: Bifidobacterium breve JCP7499 HM 1120; assay: MIC against human normal gut microbiota; assay type: cell-based; details: JCP7499HM1120, Table 3, BHIS broth, anaerobic, 48 hours, read-out: MIC
Description: as §3

VERO cells = assay: In vitro cytotoxicity, MTS assay; assay type: cell-based, monkey; details: concentration up to 128 μg/mL; two hours incubation
Description: Toxicity assessment: Compounds AS005H, AS005J, AS004B, AS005K, AS005A and 005D were assayed (at concentrations of 64 and 128 μg/mL) against a fibroblast-like monkey kidney cell line (VERO cell) to determine the potential toxic effect in vitro. Briefly, cells were cultured in Minimum Essential Medium (MEM) supplemented with 10% fetal bovine serum (FBS), 1 mM sodium pyruvate, and penicillin-streptomycin at 37° C. with CO2 (5%). Control cells received DMSO alone at a concentration equal to that in drug-treated cell samples. The cells were incubated with the compounds (in triplicate) in a 96-well plate at 37° C. with CO2 (5%) for two hours. The assay reagent MTS 3-(4,5-dimethylthiazol-2-yl)-5-(3-carboxymethoxyphenyl)-2-(4-sulfophenyl)-2H-tetrazolium) (Promega, Madison, WI, USA) was subsequently added and the plate was incubated for four hours. Absorbance readings (at OD490) were taken using a kinetic microplate reader (Molecular Devices, Sunnyvale, CA, USA). The quantity of viable cells after treatment with each compound was expressed as a percentage of the viability of DMSO-treated control cells (average of triplicate wells±standard deviation). The toxicity data was analyzed via a two-way ANOVA, with post hoc Dunnet's multiple comparisons test (P<0.05), utilizing GraphPad Prism 6.0 (GraphPad Software, La Jolla, CA).
Percent viable mammalian cells (measured as average absorbance ratio (test agent relative to DMSO) for cytotoxicity analysis of compounds AS005H, AS005J, AS004B, AS005K, AS005A and 005D (tested in triplicates) at 64 and 128 μg/mL against VERO cells using the MTS 3-(4,5-dimethylthiazol-2-yl)-5-(3-carboxymethoxyphenyl)-2-(4-sulfophenyl)-2H-tetrazolium) assay. Dimethyl sulfoxide (DMSO) was used as a negative control to determine a baseline measurement for the cytotoxic impact of each compound. The absorbance values represent an average of a minimum of three samples analyzed for each compound. Error bars represent standard deviation values for the absorbance values.

[5] = test system: Enterococcus faecium E417 - HM-965; assay: MIC, broth microdilution (CLSI); assay type: cell-based; details: Enterococcus faecium, read-out: MIC
Description: as §1, §2

[6] = test system: Enterococcus faecium Patient #2-1 - NR-31909; assay: MIC, broth microdilution (CLSI); assay type: cell-based; details: Enterococcus faecium, read-out: MIC
Description: as §1, §2

[7] = test system: Enterococcus fecalis Strain SF 24397 NR31970; assay: MIC, broth microdilution (CLSI); assay type: cell-based; details: Enterococcus, read-out: MIC
Description: as §1, §2

[8] = test system: Enterococcus faecium Patient #3-1 NR-31912; assay: MIC, broth microdilution (CLSI); assay type: cell-based; details: Enterococcus faecium, Table 7; TSB; read-out: MIC
Description: as §1

[9] = test system: Enterococcus fecalis Strain SF 28073 - NR31972; assay: MIC, broth microdilution (CLSI); assay type: cell-based; details: Enterococcus, Table 7; TSB; read-out: MIC
Description: as §1

[10] = test system: Enterococcus fecalis Strain SF24413 NR31971; assay: MIC, broth microdilution (CLSI); assay type: cell-based; details: Enterococcus, Table 7; TSB; read-out: MIC
Description: as §1

[11] = S613HM334, Table 6, TSB in presence of 4% human serum albumin

## CC(C)(C)C(=O)Nc1nnc(S(N)(=O)=O)s1 [CAI0010, N-(5-Sulfamoyl-1,3,4-thiadiazol-2-yl)pivalamide]
Caco-2 cells
  toxicity to Caco-2 cells (percent viable cells, MTS): non-toxic
[1]; S613HM334, Table 1, TSB
  MIC: 0.5 µg/mL (≈ 1.89 µM)
[1]; [11]
  MIC: > 256 µg/mL
[1]; S613HM334, Table 7, TSB
  MIC: 0.125 µg/mL (≈ 0.473 µM)
[2]
  MIC: > 64 µg/mL
[3]
  MIC: > 64 µg/mL
[4]
  MIC: > 64 µg/mL
VERO cells
  toxicity to VERO cells (percent viable cells, MTS): non-toxic

## CCCCCCCCCC(=O)N[C@@H](Cc1c[nH]c2ccccc12)C(=O)N[C@H](CC(N)=O)C(=O)N[C@@H](CC(=O)O)C(=O)N[C@@H]1C(=O)NCC(=O)N[C@@H](CCCN)C(=O)N[C@@H](CC(=O)O)C(=O)N[C@H](C)C(=O)N[C@@H](CC(=O)O)C(=O)NCC(=O)N[C@H](CO)C(=O)N[C@@H]([C@H](C)CC(=O)O)C(=O)N[C@@H](CC(=O)c2ccccc2N)C(=O)O[C@@H]1C [Daptomycin]
[5]; E417HM965, Table 5, BHIB
  MIC: 16 µg/mL (≈ 9.87 µM)
[5]; E417HM965, Table 5, TSB
  MIC: 4 µg/mL (≈ 2.47 µM)
[6]; Table 5, BHIB
  MIC: 16 µg/mL (≈ 9.87 µM)
[6]; Table 5, TSB
  MIC: 8 µg/mL (≈ 4.94 µM)
[7]; Table 5, BHIB
  MIC: 2 µg/mL (≈ 1.23 µM)
[7]; Table 5, TSB
  MIC: 1 µg/mL (≈ 0.617 µM)
[1]; S613HM334, Table 5, BHIB
  MIC: 2 µg/mL (≈ 1.23 µM)
[1]; S613HM334, Table 5, TSB
  MIC: 1 µg/mL (≈ 0.617 µM)
[1]; [11]
  MIC: 16 µg/mL

## CC(C)C(=O)Nc1nnc(S(N)(=O)=O)s1 [CAI0011, N-(5-Sulfamoyl-1,3,4-thiadiazol-2-yl)isobutyramide]
Caco-2 cells
  toxicity to Caco-2 cells (percent viable cells, MTS): non-toxic
[1]; S613HM334, Table 1, TSB
  MIC: 2 µg/mL (≈ 7.99 µM)
[1]; S613HM334, Table 7, TSB
  MIC: 2 µg/mL (≈ 7.99 µM)
[2]
  MIC: > 64 µg/mL
[3]
  MIC: > 64 µg/mL
[4]
  MIC: > 64 µg/mL
VERO cells
  toxicity to VERO cells (percent viable cells, MTS): non-toxic

## NS(=O)(=O)c1nnc(NC(=O)C=CC2CCCCC2)s1 [CAI0019, 3-cyclohexyl-N-(5-sulfamoyl-1,3,4-thiadiazol-2-yl)propenamide]
[5]; E417HM965, Table 7, TSB
  MIC: 0.007 µg/mL (≈ 0.0221 µM)
[6]; Table 7, TSB
  MIC: 0.003 µg/mL (≈ 0.00948 µM)
[7]; Table 7, TSB
  MIC: 0.015 µg/mL (≈ 0.0474 µM)
[8]
  MIC: 0.007 µg/mL (≈ 0.0221 µM)
[9]
  MIC: 0.015 µg/mL (≈ 0.0474 µM)
[10]
  MIC: 0.015 µg/mL (≈ 0.0474 µM)
[1]; S613HM334, Table 7, TSB
  MIC: 0.007 µg/mL (≈ 0.0221 µM)

## CCCC(=O)Nc1nnc(S(N)(=O)=O)s1 [CAI0013, N-(5-Sulfamoyl-1,3,4-thiadiazol-2-yl)butyramide]
[2]
  MIC: > 64 µg/mL
[3]
  MIC: > 64 µg/mL
[4]
  MIC: > 64 µg/mL
VERO cells
  toxicity to VERO cells (percent viable cells, MTS): non-toxic

## CCc1ccc(C(=O)Nc2nnc(S(N)(=O)=O)s2)cc1 [CAI0017, 4-Ethyl-N-(5-sulfamoyl-1,3,4-thiadiazol-2-yl)benzamide]
Caco-2 cells
  toxicity to Caco-2 cells (percent viable cells, MTS): non-toxic
[1]; S613HM334, Table 1, TSB
  MIC: 1 µg/mL (≈ 3.2 µM)
[1]; S613HM334, Table 7, TSB
  MIC: 1 µg/mL (≈ 3.2 µM)
[2]
  MIC: > 64 µg/mL
[3]
  MIC: > 64 µg/mL
[4]
  MIC: > 64 µg/mL
VERO cells
  toxicity to VERO cells (percent viable cells, MTS): non-toxic
